The values below come from US12404295B2, “(Hetero)aryl-methyl-thio-beta-D-galactopyranoside derivatives” (Idorsia Pharmaceuticals Ltd, priority 2019, dated 2025).

Assay [1] addresses human Gal-3 (hGal-3) (Homo sapiens (Human), UniProt P17931). As to the kind of experiment: competitive binding assay: biotinylated hGal-3 binding to microplate-adsorbed asialofetuin (ASF). The method, boiled down: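 Serially diluted compounds compete with biotinylated hGal-3 binding to adsorbed asialofetuin (3 hours, 4° C). After washing, streptavidin-peroxidase at 80 ng/mL for 1 hour at 4° C, with ABTS colour read-out. IC50 values are averaged over repeated runs.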

For assay [2], the target named is human Gal-1 (hGal-1) (Homo sapiens (Human), UniProt P09382). The assay is described as follows: competitive binding assay: biotinylated hGal-1 binding to microplate-adsorbed asialofetuin (ASF). The following applies: Table 15; read-out: IC50 (Galectin-1 inhibition). The method, boiled down:
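Spectrophotometric competition readout: after compound and biotinylated hGal-1 (300-1000 ng/mL) sit 3 h at 4° C on adsorbed asialofetuin, streptavidin-peroxidase (1 h, 4° C) and ABTS reveal residual binding. Reported IC50 values are means of repeat runs.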

[3] abbreviates: Table 5, read-out: IC50 (Gal-3 inhibition).
[4] abbreviates: Table 14, read-out: IC50 (Gal-3 inhibition).
The mark [5] stands for this setting: Gal-3 inhibition, binding of biotinylated hGal-3 to ASF, mean values, read-out: IC50.

In general, IC50 refers to the concentration that inhibits the measured activity by half.

Like-named read-outs stand apart in the source and are kept apart here.

Chain of human Gal-1 (hGal-1) (P09382 whole entry): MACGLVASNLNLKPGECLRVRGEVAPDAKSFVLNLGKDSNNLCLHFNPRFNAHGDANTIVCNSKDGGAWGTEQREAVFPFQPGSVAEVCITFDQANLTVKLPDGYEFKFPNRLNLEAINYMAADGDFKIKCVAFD
Chain of human Gal-3 (hGal-3) (P17931 whole entry): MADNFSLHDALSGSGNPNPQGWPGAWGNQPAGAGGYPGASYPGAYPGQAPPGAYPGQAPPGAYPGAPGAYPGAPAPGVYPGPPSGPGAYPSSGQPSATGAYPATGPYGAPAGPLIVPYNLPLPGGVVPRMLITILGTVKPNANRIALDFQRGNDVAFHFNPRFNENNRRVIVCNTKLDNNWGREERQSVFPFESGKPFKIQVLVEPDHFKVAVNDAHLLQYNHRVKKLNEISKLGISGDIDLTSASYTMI

As to “(2S,3R,4S,5R,6R)-2-(((S)-((R)-4-Hydroxy-2,2-dimethyltetrahydro-2H-pyran-4-yl)(o-tolyl)methyl)thio)-6-(hydroxymethyl)-4-(4-(3,4,5-trifluorophenyl)-1H-1,2,3-triazol-1-yl)tetrahydro-2H-pyran-3,5-diol [Example 2.43.112SR.]”, the values for the IC50 in assay [1] (setting [3]) and in assay [2] were 4900 nM and 10900 nM, respectively.
Consider “(2S,3R,4S,5R,6R)-2-(((R)-((R)-4-Hydroxy-2,2-dimethyltetrahydro-2H-pyran-4-yl)(2-(trifluoromethyl)phenyl)methyl)thio)-6-(hydroxymethyl)-4-(4-(3,4,5-trifluorophenyl)-1H-1,2,3-triazol-1-yl)tetrahydro-2H-pyran-3,5-diol [Example 2.43.102RR.]”, for which the values for the IC50 in assay [1] (setting [3]) and in assay [2] were 290 nM and 8800 nM, respectively.
As to `CO[C@@H]1[C@@H](n2cc(-c3cc(F)c(Cl)c(Cl)c3)nn2)[C@@H](O)[C@@H](CO)O[C@H]1SC(c1ncccc1C)C1(O)CCC(F)(F)CC1` (stereo partly drawn) [Example 17.44.126.I., (2R,3R,4S,5R,6S)-4-(4-(3,4-Dichloro-5-fluorophenyl)-1H-1,2,3-triazol-1-yl)-6-(((4,4-difluoro-1-hydroxycyclohexyl)(3-methylpyridin-2-yl)methyl)thio)-2-(hydroxymethyl)-5-methoxytetrahydro-2H-pyran-3-ol], the IC50 turned out to be 140 nM in assay [1] (setting [4]) and 1680 nM in assay [2].
On to `Cc1nc(C)c([C@H](S[C@@H]2O[C@H](CO)[C@H](O)[C@H](n3cc(-c4cc(F)c(F)c(F)c4)nn3)[C@H]2O)C2(O)CCCCC2)nc1C` [Example 2.39.119S., (2S,3R,4S,5R,6R)-2-(((S)-(1-Hydroxycyclohexyl) (3,5,6-trimethylpyrazin-2-yl)methyl)thio)-6-(hydroxymethyl)-4-(4-(3,4,5-trifluorophenyl)-1H-1,2,3-triazol-1-yl)tetrahydro-2H-pyran-3,5-diol], for which the IC50 in assay [1] (setting [3]) came to 3960 nM; in assay [2], 18900 nM.
As to `CO[C@@H]1[C@@H](n2cc(-c3cc(F)c(F)c(F)c3)nn2)[C@@H](O)[C@@H](CO)O[C@H]1S[C@@H](c1ccccc1C(C)C)C1(O)CCC(F)(F)CC1` [Example 2.44.105S.I., (2R,3R,4S,5R,6S)-6-(((S)-(4,4-Difluoro-1-hydroxycyclohexyl)(2-isopropylphenyl)methyl)thio)-2-(hydroxymethyl)-5-methoxy-4-(4-(3,4,5-trifluorophenyl)-1H-1,2,3-triazol-1-yl)tetrahydro-2H-pyran-3-ol], the half-maximal inhibitory concentration (IC50) in assay [1] (Table 10, 2-OMe-Gal inhibitors, read-out: IC50 (Gal-3 inhibition)) was determined as 70500 nM; in assay [2] it was 53300 nM.
Take `Cc1noc(C)c1C(S[C@@H]1O[C@H](CO)[C@H](O)[C@H](n2cc(-c3cc(F)c(F)c(F)c3)nn2)[C@H]1O)C(C)(C)O` (stereo partly drawn) [Example 2.31.121., (2S,3R,4S,5R,6R)-2-((1-(3,5-Dimethylisoxazol-4-yl)-2-hydroxy-2-methylpropyl)thio)-6-(hydroxymethyl)-4-(4-(3,4,5-trifluorophenyl)-1H-1,2,3-triazol-1-yl)tetrahydro-2H-pyran-3,5-diol]: the IC50 in assay [1] (setting [5]) was 710 nM; in assay [2], 5030 nM.
In the case of `CO[C@@H]1[C@@H](n2cc(-c3cc(F)c(Br)c(F)c3)nn2)[C@@H](O)[C@@H](CO)O[C@H]1SC(c1ncccc1C)C1(O)CCC(F)(F)CC1` (stereo partly drawn) [Example 18.44.126.I., (2R,3R,4S,5R,6S)-4-(4-(4-Bromo-3,5-difluorophenyl)-1H-1,2,3-triazol-1-yl)-6-(((4,4-difluoro-1-hydroxycyclohexyl)(3-methylpyridin-2-yl)methyl)thio)-2-(hydroxymethyl)-5-methoxytetrahydro-2H-pyran-3-ol], the half-maximal inhibitory concentration (IC50) amounted to 120 nM in assay [1] (setting [4]) and 3470 nM in assay [2].
Consider `OC[C@H]1O[C@@H](S[C@@H](c2ccccc2C(F)(F)F)C2(O)CC(F)(F)C2)[C@H](O)[C@@H](n2cc(-c3cc(F)c(F)c(F)c3)nn2)[C@H]1O` [Example 2.33.112S.], for which the IC50 in assay [1] (setting [3]) turned out to be 11300 nM; in assay [2], 21700 nM.
Consider `CC(C)(O)C(S[C@@H]1O[C@H](CO)[C@H](O)[C@H](n2cc(-c3cc(F)c(F)c(F)c3)nn2)[C@H]1O)c1ccccc1C1CC1` (stereo partly drawn) [Example 2.31.106., (2S,3R,4S,5R,6R)-2-((1-(2-Cyclopropylphenyl)-2-hydroxy-2-methylpropyl)thio)-6-(hydroxymethyl)-4-(4-(3,4,5-trifluorophenyl)-1H-1,2,3-triazol-1-yl)tetrahydro-2H-pyran-3,5-diol], for which the 50% inhibitory concentration (IC50) in assay [1] (setting [5]) came to 200 nM; in assay [2] it was 340 nM.
For the compound `CCC(O)(CC)[C@@H](S[C@@H]1O[C@H](CO)[C@H](O)[C@H](n2cc(-c3cc(F)c(F)c(F)c3)nn2)[C@H]1O)c1conc1C` [Example 2.32.120S., (2S,3R,4S,5R,6R)-2-(((S)-2-Ethyl-2-hydroxy-1-(3-methylisoxazol-4-yl)butyl)thio)-6-(hydroxymethyl)-4-(4-(3,4,5-trifluorophenyl)-1H-1,2,3-triazol-1-yl)tetrahydro-2H-pyran-3,5-diol], the IC50 in assay [1] (setting [5]) is 11300 nM; in assay [2], 77400 nM.
As to `CC(C)c1ccccc1[C@H](S[C@@H]1O[C@H](CO)[C@H](O)[C@H](n2cc(-c3cc(F)c(F)c(F)c3)nn2)[C@H]1O)C1(O)CCC(F)(F)CC1` [Example 2.44.105S., (2S,3R,4S,5R,6R)-2-(((S)-(4,4-Difluoro-1-hydroxycyclohexyl)(2-isopropylphenyl)methyl)thio)-6-(hydroxymethyl)-4-(4-(3,4,5-trifluorophenyl)-1H-1,2,3-triazol-1-yl)tetrahydro-2H-pyran-3,5-diol], the IC50 worked out at 950 nM in assay [1] (setting [3]) and 520 nM in assay [2].
With `Cc1cccnc1[C@@H](S[C@@H]1O[C@H](CO)[C@H](O)[C@H](n2cc(-c3cc(F)c(F)c(F)c3)nn2)[C@H]1O)C1(O)CCS(=O)(=O)CC1` [Example 2.66.126R., 4-((R)-(((2S,3R,4S,5R,6R)-3,5-Dihydroxy-6-(hydroxymethyl)-4-(4-(3,4,5-trifluorophenyl)-1H-1,2,3-triazol-1-yl)tetrahydro-2H-pyran-2-yl)thio)(3-methylpyridin-2-yl)methyl)-4-hydroxytetrahydro-2H-thiopyran 1,1-dioxide], the concentration for half-maximal inhibition (IC50) in assay [1] (setting [5]) was 20 nM; in assay [2] it was 170 nM.
For the compound `CC(C)c1cccnc1C(S[C@@H]1O[C@H](CO)[C@H](O)[C@H](n2cc(-c3cc(F)c(F)c(F)c3)nn2)[C@H]1O)C1(O)CCC(F)(F)CC1` (stereo partly drawn) [Example 2.44.132., (2S,3R,4S,5R,6R)-2-(((4,4-Difluoro-1-hydroxycyclohexyl)(3-isopropylpyridin-2-yl)methyl)thio)-6-(hydroxymethyl)-4-(4-(3,4,5-trifluorophenyl)-1H-1,2,3-triazol-1-yl)tetrahydro-2H-pyran-3,5-diol], the IC50 is 100 nM in assay [1] (setting [5]) and 160 nM in assay [2].
Take “(2S,3R,4S,5R,6R)-2-(((R)-((S)-4-Hydroxy-2,2-dimethyltetrahydro-2H-pyran-4-yl)(2-(trifluoromethyl)phenyl)methyl)thio)-6-(hydroxymethyl)-4-(4-(3,4,5-trifluorophenyl)-1H-1,2,3-triazol-1-yl)tetrahydro-2H-pyran-3,5-diol [Example 2.43.102RS.]”: the values for the IC50 in assay [1] (setting [3]) and in assay [2] were 40 nM and 800 nM, respectively.
